≈ marks a conversion by molar mass, not a printed value.
How the values were obtained:
Format in all cases: biochemical
[1] = Reduction of the DPPH radical, inhibition of absorbance at 523 nm (UV-visible); conditions: for IC50 Mean: n = 3
Excerpt: DPPH. has an intense violet color and this compound remains stable, in the solid form, for years. An antioxidant, proton donor, is capable of reducing this radical (DPPH.→DPPH2), which leads to a decrease in its absorbance. The antioxidant capacity of the compounds is thus determined by evaluating the percentage of inhibition of the absorbance of DPPH. at 523 nm. […] The DPPH. sold by Aldrich and the vitamin C sold by Merck were used. In these tests, the selenium and glutathione concentrations were such that the solution of E2 contained as much selenium and glutathione as that of E1. The method used made it possible to evaluate the overall antioxidant power of the mixture and to compare it to that of reference substances under the same experimental conditions. The antioxidant activity was evaluated by measuring the capacity of the extract to trap the […].

LDL/VLDL [2] = test: LAG-TIME method: Cu2+-induced oxidation of LDL/VLDL, absorbance at 234 nm, unbound samples; conditions: 1 μM of sample; for Lag Time: 70 μg/ml LDL/VLDL, 25 μM Cu2+, 234 nm; for Increase of Lag Time 1 (%): relative to control (LDL alone)
Experimental: It makes it possible to measure the time required for the added antioxidants to oxidize. […] The effect of the antioxidant present is all the stronger when the lag time is long (in seconds). The kinetic analysis was carried out at 234 nm. The various samples were brought to the same concentration of 1 μm.
The mixture was subjected to Vortex stirring for 5 minutes, then to centrifugation for 10 minutes. […] of supernatant was recovered. This product was ready to use. (sample No. 7 was ground into a fine powder before being mixed with water).
The procedure described in the publication J. Agric. […] This experiment thus made it possible to measure the capacity of the antioxidant tested to inhibit oxidation.
The LDL/VLDL preparation and the various samples were diluted in PBS in order to obtain the desired concentration (70 μg/ml of LDL/VLDL). The control batch contained only the 70 μg/ml LDL/VLDL preparation and PBS. The absorbance of the PBS, the control batch and the other samples was carried out at a wavelength of 234 nm over 10 min on a Genesys 5 machine. Next, 25 μM of Cu^2+ (final concentration in the solution) were added and mixed and the absorbance measurement was carried out every 5 minutes for 6 to 8 hours.

LDL/VLDL [3] = test: Bound LAG TIME: samples incubated 2 hours with LDL/VLDL before Cu2+-induced oxidation; conditions: 1 μM of sample; for Lag Time: bound (2 hours incubation with LDL/VLDL at ambient temperature), 25 μM Cu2+; for Increase of Lag Time 1 (%) / Increase of Lag Time 2 (%): bound; for Increase of Lag Time 1 (%): relative to control (LDL alone); for Increase of Lag Time 2 (%): relative to the unbound sample
Experimental: The LDLs and the various antioxidants were inoculated so that bonds were created. This phenomenon is supposed to represent what happens in the plasma when an antioxidant having the ability to bind is absorbed.
The various samples and the LDL/VLDL preparation were diluted to 1 μM and 70 μg/ml respectively in PBS, then incubated at ambient temperature for 2 hours. Next, 25 μM of Cu^2+ (final concentration in the solution) were added and mixed and the absorbance measurement was carried out every 5 minutes for 6 to 8 hours. The absorbance of the samples was measured at a wavelength of 234 nm over 10 min on a Genesys 5 machine. The tocopherol was used as a positive control given that it is known for binding to the LDL which is generally a tocopherol carrier in plasma.

| Molecule | IC50 times higher than that for vitamin C ([1]; 30 min value) [times] | IC50 Mean ([1]; Time 10 min) [mg/L] | IC50 Mean ([1]; Time 20 min) [mg/L] | IC50 Mean ([1]; Time 30 min) [mg/L] | inhibition of LDL oxidation in comparison to the control (in words) (LDL/VLDL [2]) | Lag Time (LDL/VLDL [2]) [s] | Increase of Lag Time 1 (%) (LDL/VLDL [2]) | Lag Time (LDL/VLDL [3]) [s] | Increase of Lag Time 1 (%) (LDL/VLDL [3]) | Increase of Lag Time 2 (%) (LDL/VLDL [3]) |
| --- | --- | --- | --- | --- | --- | --- | --- | --- | --- | --- |
| N[C@@H](CCC(=O)N[C@@H](CS)C(=O)NCC(=O)O)C(=O)O [Glutathione] | 40 | 292.97 (≈ 953 µM) | 233.84 (≈ 761 µM) | 202.13 (≈ 658 µM) |  |  |  |  |  |  |
| O=C1O[C@H]([C@@H](O)CO)C(O)=C1O [Vitamin C, vitamin C] |  | 5.24 (≈ 29.8 µM) | 5.20 (≈ 29.5 µM) | 5.16 (≈ 29.3 µM) |  |  |  |  |  |  |
| C[Se]CC[C@H](N)C(=O)O [selenomethionine] |  |  |  |  | did not show signs of inhibition | 2805 | −8 | 6267 | 106 | 123 |
| tocopherol |  |  |  |  | high levels of inhibition | 7285 | 140 | 20940 | 590 | 187 |

Reference: patent US20090232942A1, “Yeast Preparations With Improved Antioxidant Properties and Uses Thereof” (priority 2005, published 2009)
